Experimental findings from US9878999B2, “Proteasome chymotrypsin-like inhibition using PI-1833 analogs” (H. Lee Moffitt Cancer Center and Research Institute, Inc., priority 2011, dated 2018) are described below.

For this assay, the target named is CT-L activity of purified 20S proteasome (Homo sapiens, UniProt P20618+P28074). Put plainly: in vitro CT-L activity of purified 20S proteasome. Type of assay: biochemical. The note with it: for inhibition at 10 µM: Table 5, @ 10 μM, read-out: Screening Results (% Inhibition @ 10 μM) Chymotrypsin-like; for fold improved CT-L activity: compared to the hit 1 (PI-1833); for fold loss of CT-L activity: compared to 11ad or 11ae.

Setting [1] is: Table 5, read-out: IC50 (μM) Chymotrypsin-like.
Where [2] appears, read: Table 3, read-out: IC50 (μM) CT-L.
Setting [3] is: Table 1, read-out: IC50 (μM) Chymotrypsin-like activity.

What is called IC50 is the midpoint of a concentration-inhibition curve. A word on the inhibition: it is the change of the read-out against control, counted positive when it falls.

“And” between values parts separate entries of the source, which are not always exact repeats. Equal values may be shown once. Read-outs that look alike come from different tables or passages of the source.

`Cc1ccc(-c2noc(CN(C(=O)COc3ccc(C(C)C)cc3)C(C)C)n2)cc1`: under setting [1], the IC50 is 4.12 ± 0.09 µM.

For `CC(C)c1ccc(OCC(=O)N(Cc2nc(-c3ccc(Cl)cc3)no2)C(C)C)cc1`, the IC50 under setting [1] was found to be 5.13 ± 0.09 µM.

Turning to `CC(C)N(Cc1nc(-c2ccccc2)no1)C(=O)CCl`, the inhibition at 10 µM is -53 ± 23.4%.

Take `Cc1ccc(OC(C)C(=O)N(Cc2nc(-c3ccccc3)no2)C(C)C)cc1` (stereo not shown): the inhibition at 10 µM came to 92.43 ± 0.82%. Further, the IC50 under setting [1] amounted to 0.92 ± 0.21 µM.

Consider `Cc1ccc(OC(C)C(=O)N(Cc2nc(-c3cccnc3)no2)C(C)C)cc1` (stereo not shown), for which the inhibition at 10 µM worked out at 92.9 ± 1.7%. Further, the IC50 under setting [1] is 0.38 ± 0.099 µM.

Turning to `Cc1ccc(OCC(=O)N(Cc2coc(-c3ccccc3)n2)C(C)C)cc1`, the IC50 under setting [1] came out at 0.14 ± 0.003 µM.

`CCCc1ccc(O[C@H](C)C(=O)N(Cc2nc(-c3cccnc3)no2)C(C)C)cc1`: the IC50 under setting [1] was 2.39 µM and 1.99 µM.

On to `Cc1ccc(OC(C)C(=O)N(Cc2nc(-c3cccnc3)no2)C(C)C)cc1` (racemic) [16a], for which the IC50 reads like this: under setting [2], 0.38 ± 0.099 µM; (read-out: IC50, in vitro CT-L) 0.318 µM.

Consider `CCCc1ccc(OC(C)C(=O)N(Cc2nc(-c3cccnc3)no2)C(C)C)cc1` (racemic) [16d, N-Isopropyl-2-(4-propylphenoxy)-N-((3-(pyridine-3-yl)-1,2,4-oxadiazol-5-yl)methyl)propanamide], for which the IC50 (read-out: IC50, in vitro CT-L) came to 0.289 µM.

As for `CCCc1ccc(OC(C)C(=O)N(Cc2nc(-c3cccnc3)no2)C(C)C)cc1` (racemic) [drawing 177], the IC50 under setting [1] amounted to 0.289 µM.

Turning to `CCCc1ccc(O[C@@H](C)C(=O)N(Cc2nc(-c3cccnc3)no2)C(C)C)cc1` (single isomer, unassigned) [16f], the IC50 under setting [2] is 2.18 ± 0.28 µM.

In the case of `CCCc1ccc(O[C@@H](C)C(=O)N(Cc2nc(-c3cccnc3)no2)C(C)C)cc1` (single isomer, unassigned) [drawing 176], the IC50 under setting [1] came out at 0.075 µM.

Take `Cc1ccc(-c2noc(CN(C(=O)COc3ccc(C(F)(F)F)cc3)C(C)C)n2)cc1` [11a, N-Isopropyl-N-((3-p-tolyl-1,2,4-oxadiazol-5-yl)methyl)-2-(4-(trifluoromethyl)phenoxy)acetamide]: the IC50 is, setting by setting: under setting [3], 1.08 ± 0.33 µM; (read-out: IC50, in vitro CT-L) ~1 µM.

For the molecule `CCc1ccc(OCC(=O)N(Cc2nc(-c3ccccc3)no2)C(C)C)cc1` [11aa, 2-(4-Ethylphenoxy)-N-isopropyl-N-((3-phenyl-1,2,4-oxadiazol-5-yl)methyl)acetamide], the “fold improved CT-L activity” value was 2 fold. The IC50 under setting [3] worked out at 0.267 ± 0.05 µM. Further, the IC50 (read-out: IC50, in vitro CT-L) is 0.26 ± 0.05 µM.

Consider `CCc1ccc(OCC(=O)N(Cc2nc(-c3cccnc3)no2)C(C)C)cc1` [11ab, 2-(4-Ethylphenoxy)-N-isopropyl-N-((3-pyridin-3-yl)1,2,4-oxadiazol-5-yl)methylacetamide], for which the “fold improved CT-L activity” value is 6 fold. Under “read-out: IC50, in vitro CT-L”, the IC50 came out at 0.099 ± 0.03 µM.

For the molecule `CC(C)N(Cc1nc(-c2cccnc2)no1)C(=O)COc1ccccc1` [11ac, N-Isopropyl-2-phenoxy-N-((3-(pyridine-3-yl)-1,2,4-oxadiazol-5-yl)methyl)acetamide], the IC50 (read-out: IC50, in vitro CT-L) was 3.12 ± 1.11 µM.

With `CCCCc1ccc(OCC(=O)N(Cc2nc(-c3cccnc3)no2)C(C)C)cc1` [11ae, 2-(4-Butylphenoxy)-N-isopropyl-N-((3-(pyridine-3-yl)-1,2,4-oxadiazol-5-yl)methyl)acetamide], the “fold improved CT-L activity” value is on record as 20 fold. The IC50 (read-out: IC50, in vitro CT-L) is 0.039 µM.

For `CCCCCc1ccc(OCC(=O)N(Cc2nc(-c3cccnc3)no2)C(C)C)cc1` [11af], the “fold loss of CT-L activity” value stood at 4 fold. In addition, the IC50 under setting [3] was 0.121 ± 0.04 µM.

For the molecule `CCCCCCc1ccc(OCC(=O)N(Cc2nc(-c3cccnc3)no2)C(C)C)cc1` [11ag, 2-(4-Hexylphenoxy)-N-isopropyl-N-((3-(pyridine-3-yl)-1,2,4-oxadiazol-5-yl)methyl)acetamide], the “fold loss of CT-L activity” value worked out at 13 fold. The IC50 under setting [3] is 0.428 ± 0.038 µM.

Consider `CC(C)N(Cc1nc(-c2cccnc2)no1)C(=O)COc1ccc(C2CCCCC2)cc1` [11ah], for which the “fold loss of CT-L activity” value was determined as 40 fold. Moreover, the IC50 under setting [3] turned out to be 1.36 ± 0.184 µM.
